Source: patent US20240050392A1, “COMPOSITIONS AND METHODS FOR IMPROVED TREATMENT OF PLATINUM-BASED CHEMOTHERAPEUTIC RESISTANT TUMORS” (THE REGENTS OF THE UNIVERSITY OF THE COLORADO, A BODY …, priority 2021, published 2024)

Legend:
KU1919 and T24 cells = test: Intracellular carboplatin measurements with NPEPPS and LRRC8A knockdown; assay type: cell-based, human; settings: KU1919 and T24 parental and GemCis cells
[1] = tested on: bladder tumor-derived organoids; test: Tumor-derived organoid drug screening (alamarBlue viability, reseeding); assay type: cell-based, human
Description: Three independent organoid models derived from patients that failed between 4 to 6 cycles of neoadjuvant gemcitabine plus cisplatin chemotherapy (FIG. 10A). The organoids mimicked the morphological and genomic characteristics of the tumor from which they were derived (FIG. 10B). These organoids were treated with increasing doses of cisplatin and 20 μM of tosedostat.
Tumor-derived Organoids. Culture of the organoids. Human bladder tissue was obtained from the Erasmus MC Bladder Cancer Center, Rotterdam, the Netherlands. Bladder tumor-derived organoids from biopsies obtained through TURBT or cystectomy. Briefly, bladder tissues were washed with Advanced DMEM/F12 (Gibco) supplemented with 10 mM HEPES (Gibco), 1% GlutaMax (Gibco) and 100 μg/ml primocin (InvivoGen), henceforth Ad+++. Tissue was minced and incubated at 37° C. with the digestion solution (collagenase 2.5 mg/ml in EBSS) and isolated cells were passed through […] strainer (Falcon), washed with Ad+++ and seeded in 50 μl drops of BME (R&D system) containing 10000-15000 cells in 24 well suspension plates (Greiner). Bladder tumor organoids were cultured in a culture medium containing Ad+++ supplemented with 1×B-27 (Gibco), 1.25 mM N-acetylcysteine (Sigma), 10 mM nicotinamide, 20 μM TGFβ receptor inhibitor A83-01, 100 ng/ml recombinant human FGF10 (Peprotech), 25 ng/ml recombinant human FGF7 (Peprotech), 12.5 ng/ml recombinant human FGF2 (Peprotech), 10 μM Y27632 Rho Kinase (ROCK) Inhibitor (Sigma) and conditioned media for recombinant Rspondin (2.5% v/v), and Wnt3A (2.5% v/v). The medium was changed every three days. Organoids were passaged at a 1:3 to 1:6 ratio every 7 days using cell dissociation solution-non enzymatic (Sigma) and plated in fresh BME matrix droplets.
Drug screening. Organoids were collected 7 days after passaging, passed through a […] strainer and 1000 organoids were seeded per well of a 48-well plate in BME matrix droplets. After 24 hours cisplatin (Sigma) resuspended in PBS was added at different concentrations (2, 10, 25, and 50 μM) with or without tosedostat (20 μM) (Tocris) resuspended in DMSO. All wells were adjusted to contain less than 0.7% DMSO. Organoids were cultured for the first 6 days in the presence of drugs followed by drug withdrawal, where organoids were grown in organoid culture media for 10 days. The entire content of the wells in different treatment groups was collected, washed and reseeded after disaggregation in fresh BME, and cultured for 6 days. Cell viability was assayed using alamarBlue (Invitrogen) according to the manufacturer's instructions after 6 days of drug incubation, 10 days of drug withdrawal, and 6 days post reseeding. Viability data was normalized using organoid wells treated with vehicle control.

[2] = tested on: KU1919, T24, and TCCSUP GemCis-resistant cells; test: Cell culture dose response (IncuCyte growth inhibition) of tosedostat with gemcitabine and/or cisplatin; assay type: cell-based, human
Description: One feature of NPEPPS is the availability of agents that inhibit its activity. Tosedostat, an orally available M1 aminopeptidase prodrug has antileukemic activity and is readily available for use. […] Tosedostat is antiproliferative, proapoptotic, and has antiangiogenic effects. The response of the KU1919, T24, and TCCSUP GemCis-resistant cells to increasing doses of tosedostat with gemcitabine, cisplatin, and gemcitabine plus cisplatin was measured. (FIGS. 3F-3H).
Cell Line Drug Treatments. Gemcitabine (Sigma) and cisplatin (Sigma) stocks were resuspended in 0.9% saline solution and tosedostat (Sigma and BOC Sciences) was resuspended in DMSO. All stocks solutions were stored protected from light and kept frozen until use. For cell culture dose response, cells were seeded in 96-well tissue culture plates with 500-2000 cells per well depending on growth rate and duration of experiment. Cells were seeded and allowed to attach overnight followed by replacing the media with fresh, pre-warmed media just prior to treatment. Drug dilutions were performed serially and using complete media (IMDM+10% FBS) and the associated drug treatments. Growth inhibition was measured using confluence estimates over time on the IncuCyte ZOOM (Essen Bioscience) over varying amounts of time depending on each experiment. Details for timing and replicates for each experiment are included in their respective figure legends.

[3] = active form, accumulates in cells; cited from earlier work
[4] = tested on: KU1919-GemCis and KU1919 parental cells; test: Drug dose response with NPEPPS knockdown or overexpression; assay type: cell-based, human

Compound: N.N.O=C([O-])C1(C(=O)[O-])CCC1.[Pt+2] [carboplatin]
- NPEPPS-mediated import pattern of carboplatin compared with cisplatin (KU1919 and T24 cells): the same patterns were found

Compound: CC(C)C[C@@H](C(=O)N[C@H](C(=O)OC1CCCC1)c1ccccc1)[C@H](O)C(=O)NO [tosedostat]
- organoid growth ([1]; 20 μM tosedostat in combination with 2 μM and 10 μM cisplatin): significantly decreased organoid growth
- organoid growth ([1]; tosedostat alone, 20 μM): minor effect on organoid growth
- combined effect on cell growth ([2]; increasing doses of tosedostat with cisplatin): strongest combined effect
- combined effect on cell growth ([2]; increasing doses of tosedostat with gemcitabine): little to no effect
- combined effect on cell growth ([2]; increasing doses of tosedostat with gemcitabine plus cisplatin): strongest combined effect

Compound: CC(C)C[C@@H](C(=O)N[C@H](C(=O)O)c1ccccc1)[C@H](O)C(=O)NO [CHR-79888]
- membrane permeability [3]: poorly membrane-permeable

Compound: Nc1ccn([C@@H]2O[C@H](CO)[C@@H](O)C2(F)F)c(=O)n1 [gemcitabine]
- effect of NPEPPS knockdown on drug response ([4]; KU1919-GemCis cells, stable NPEPPS shRNA knockdown): not gemcitabine alone
- effect of NPEPPS overexpression on drug response ([4]; KU1919 parental lines overexpressing NPEPPS): not gemcitabine
